Where two headings read alike, the source gives them in different places.
What was measured:
RT112 cells = assay: Luminescent Viability Assay (LVA, FGFR3); assay type: cell-based; conditions: Homo sapiens, RT-112, 72 h, 3 days, CellTiter-Glo
Experimental: RT112 cells were purchased from ATCC (Manassas, Va.) and maintained in RPMI, 10% FBS (Gibco/Life Technologies). To measure the effect of test compounds on the viability of cells, the cells were plated with RPMI 10% FBS (5×10^3 cells/well/in 50 μL) into black 96-well Greiner polystyrene in the presence or absence of 50 μl of a concentration range of test compounds. After 3 days, 100 μl of CellTiter-Glo Reagent (Promega) was added. Luminescence was read with a TopCount (PerkinElmer). IC50 determination was performed by fitting the curve of percent inhibition versus the log of the inhibitor concentration using the GraphPad Prism 5.0 software.

FGFR3 (UP) = FGFR3 (UP) (Homo sapiens (Human), UniProt P22607); assay: FGFR Enzymatic Assay, FGFR3 un-phosphorylated
Chain of FGFR3 (UP) (P22607 23-806): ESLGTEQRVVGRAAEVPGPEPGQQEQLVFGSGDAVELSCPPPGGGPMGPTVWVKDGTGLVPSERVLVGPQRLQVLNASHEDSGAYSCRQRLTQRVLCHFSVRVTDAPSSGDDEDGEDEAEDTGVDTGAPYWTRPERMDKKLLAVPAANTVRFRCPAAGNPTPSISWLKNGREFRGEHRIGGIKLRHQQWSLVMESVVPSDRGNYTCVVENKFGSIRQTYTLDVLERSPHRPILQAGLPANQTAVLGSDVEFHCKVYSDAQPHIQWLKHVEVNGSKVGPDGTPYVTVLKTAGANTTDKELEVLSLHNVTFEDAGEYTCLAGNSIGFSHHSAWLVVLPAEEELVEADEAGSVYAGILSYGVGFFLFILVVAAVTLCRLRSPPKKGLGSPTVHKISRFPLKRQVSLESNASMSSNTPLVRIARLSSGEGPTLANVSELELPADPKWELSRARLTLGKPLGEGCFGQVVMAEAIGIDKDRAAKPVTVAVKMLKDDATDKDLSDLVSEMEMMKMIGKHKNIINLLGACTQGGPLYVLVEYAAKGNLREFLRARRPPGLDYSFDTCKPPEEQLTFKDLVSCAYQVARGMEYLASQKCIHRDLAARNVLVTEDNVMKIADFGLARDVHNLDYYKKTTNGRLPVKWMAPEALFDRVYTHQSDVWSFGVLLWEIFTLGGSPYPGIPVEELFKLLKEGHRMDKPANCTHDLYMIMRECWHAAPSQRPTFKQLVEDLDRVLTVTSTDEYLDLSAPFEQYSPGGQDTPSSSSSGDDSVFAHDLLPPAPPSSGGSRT
Experimental: (§1) The inhibitor potency of the exemplified compounds was determined in an enzyme discontinuous assay that measures peptide phosphorylation using FRET measurements to detect product formation. Inhibitors were serially diluted in DMSO and a volume of 0.2 μL was transferred to the wells of a 384-well plate. For the isoforms of FGFR (−1, −2, −3 wild-type and mutant isoforms, −4) including phosphorylated (P) and un-phosphorylated (UP) proteins, a 5 μL/well volume of enzyme diluted in assay buffer (50 mM HEPES, 10 mM MgCl2, 1 mM EGTA, 0.01% Tween-20, 5 mM DTT, pH 7.5) was added to the plate and pre-incubated with inhibitor for 5 to 15 minutes at ambient temperature. Appropriate controls (enzyme blank and enzyme with no inhibitor) were included on the plate. The reaction was initiated by the addition of a 5 μL/well volume containing both biotinylated [sequence] […] The plate was allowed to equilibrate for −10 minutes at ambient temperature before scanning on a PheraStar plate reader (BMG Labtech) instrument.
(§2) Either GraphPad prism or XLfit was used to analyze the data. The IC50 values were derived by fitting the data to a four parameter logistic equation producing a sigmoidal dose-response curve with a variable Hill coefficient. Prism equation: Y=Bottom+(Top−Bottom)/(1+10^((LogIC50−X)*Hill slope)); XLfit equation: Y=(A+((B−A)/(1+((X/C)^D)))) where X is the logarithm of inhibitor concentration and Y is the response.

FGFR1 (UP) = FGFR1 (UP) (Homo sapiens (Human), UniProt P11362); assay: FGFR Enzymatic Assay, FGFR1 un-phosphorylated
Chain of FGFR1 (UP) (P11362 22-822): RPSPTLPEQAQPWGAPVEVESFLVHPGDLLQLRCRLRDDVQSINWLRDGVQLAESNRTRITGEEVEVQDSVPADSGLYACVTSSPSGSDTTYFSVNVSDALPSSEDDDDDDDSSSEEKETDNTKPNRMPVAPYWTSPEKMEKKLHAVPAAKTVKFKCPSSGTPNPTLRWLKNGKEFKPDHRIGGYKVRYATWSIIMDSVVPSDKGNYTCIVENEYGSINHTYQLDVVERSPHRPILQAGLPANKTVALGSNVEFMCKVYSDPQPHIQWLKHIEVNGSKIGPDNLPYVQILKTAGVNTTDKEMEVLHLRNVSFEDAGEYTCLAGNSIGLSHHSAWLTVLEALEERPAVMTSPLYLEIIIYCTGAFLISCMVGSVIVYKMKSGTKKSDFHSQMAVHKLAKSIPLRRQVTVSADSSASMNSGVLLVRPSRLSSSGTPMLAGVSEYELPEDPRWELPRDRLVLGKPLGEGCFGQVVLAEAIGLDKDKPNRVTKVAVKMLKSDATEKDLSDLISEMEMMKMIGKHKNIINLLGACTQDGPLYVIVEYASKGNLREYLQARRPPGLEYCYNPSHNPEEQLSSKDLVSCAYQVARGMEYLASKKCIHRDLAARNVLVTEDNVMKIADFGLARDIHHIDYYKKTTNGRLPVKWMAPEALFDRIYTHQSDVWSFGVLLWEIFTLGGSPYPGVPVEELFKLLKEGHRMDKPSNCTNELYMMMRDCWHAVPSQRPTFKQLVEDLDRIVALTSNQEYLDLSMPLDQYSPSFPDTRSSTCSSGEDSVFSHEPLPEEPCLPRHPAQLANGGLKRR
Experimental: as §1, §2

FGFR2 (P) = FGFR2 (P) (Homo sapiens (Human), UniProt P21802); assay: FGFR Enzymatic Assay, FGFR2 phosphorylated; conditions: phosphorylated enzyme, ATP near or below Km
Chain of FGFR2 (P) (P21802 22-821): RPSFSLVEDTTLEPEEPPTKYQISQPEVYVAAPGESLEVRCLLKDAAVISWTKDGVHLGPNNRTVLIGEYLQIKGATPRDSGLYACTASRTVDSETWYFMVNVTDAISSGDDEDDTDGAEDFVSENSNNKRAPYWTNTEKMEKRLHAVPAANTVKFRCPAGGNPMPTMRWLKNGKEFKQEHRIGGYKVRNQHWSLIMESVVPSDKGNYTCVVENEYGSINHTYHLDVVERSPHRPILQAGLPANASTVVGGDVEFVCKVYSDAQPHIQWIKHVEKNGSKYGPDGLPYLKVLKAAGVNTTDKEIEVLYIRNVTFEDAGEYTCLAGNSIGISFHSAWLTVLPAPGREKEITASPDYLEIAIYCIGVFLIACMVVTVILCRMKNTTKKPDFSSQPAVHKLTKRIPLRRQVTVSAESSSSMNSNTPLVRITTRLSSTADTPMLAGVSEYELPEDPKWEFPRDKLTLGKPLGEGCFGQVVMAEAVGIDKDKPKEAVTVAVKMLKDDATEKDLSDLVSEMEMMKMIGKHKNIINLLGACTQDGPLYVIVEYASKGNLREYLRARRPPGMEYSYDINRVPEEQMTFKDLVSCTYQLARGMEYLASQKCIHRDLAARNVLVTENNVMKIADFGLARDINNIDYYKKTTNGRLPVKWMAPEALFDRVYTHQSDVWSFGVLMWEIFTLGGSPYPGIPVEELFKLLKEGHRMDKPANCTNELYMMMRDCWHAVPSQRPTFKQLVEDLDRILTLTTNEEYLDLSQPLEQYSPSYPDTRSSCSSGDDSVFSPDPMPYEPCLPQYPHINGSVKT
Experimental: as §1, §2

ALK2 (aa 147-end) = ALK2 (aa 147-end) (Homo sapiens (Human), UniProt Q04771); assay: ALK2 HTRF Assay; assay type: biochemical
Chain of ALK2 (aa 147-end) (Q04771 147-509): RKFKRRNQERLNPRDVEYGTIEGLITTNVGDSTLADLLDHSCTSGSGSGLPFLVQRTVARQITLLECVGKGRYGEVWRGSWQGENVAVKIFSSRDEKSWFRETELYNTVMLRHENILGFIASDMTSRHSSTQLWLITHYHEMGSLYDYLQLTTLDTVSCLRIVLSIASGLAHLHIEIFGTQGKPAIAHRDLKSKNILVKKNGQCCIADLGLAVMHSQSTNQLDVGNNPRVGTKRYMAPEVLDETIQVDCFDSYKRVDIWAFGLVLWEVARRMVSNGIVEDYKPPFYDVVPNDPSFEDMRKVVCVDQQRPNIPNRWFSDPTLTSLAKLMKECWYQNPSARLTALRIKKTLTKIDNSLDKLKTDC
Experimental: The enzymatic assays were conducted in white 384-well polystyrene plates in a final volume of 8 μL. The inhibitors were serially diluted in DMSO and added to the plate wells prior to addition of the other reaction components. The assays were carried out at 25° C. in the assay buffer (50 mM HEPES, pH 7.1, 10% Glycerol, 0.01% Brij50, 10 mM MgCl2, 1 mM EGTA, 5 mM DTT, and 0.01% BSA), containing 50 nM LANCE Ultra ULight™-DNA Topoisomerase 2-alpha peptide (Perkin Elmer TRF0130), and 3 uM, 100 uM or 1 mM ATP (as specified). […] The reaction was read on a PHERAstar FS plate reader (BMG Labtech). IC50 determination was performed by fitting percent control activity versus the log of the inhibitor concentration using the IDBS XLFit and GraphPad Prism 5.0 software.

ALK2 = ALK2 (Homo sapiens (Human), UniProt Q04771); assay: ALK2 Cellular Assay (phospho SMAD1 HTRF, BMP-7 stimulated HeLa cells); assay type: cell-based; conditions: read-out: ALK2 Cellular Assay PSMAD
Chain of ALK2 (Q04771 21-509): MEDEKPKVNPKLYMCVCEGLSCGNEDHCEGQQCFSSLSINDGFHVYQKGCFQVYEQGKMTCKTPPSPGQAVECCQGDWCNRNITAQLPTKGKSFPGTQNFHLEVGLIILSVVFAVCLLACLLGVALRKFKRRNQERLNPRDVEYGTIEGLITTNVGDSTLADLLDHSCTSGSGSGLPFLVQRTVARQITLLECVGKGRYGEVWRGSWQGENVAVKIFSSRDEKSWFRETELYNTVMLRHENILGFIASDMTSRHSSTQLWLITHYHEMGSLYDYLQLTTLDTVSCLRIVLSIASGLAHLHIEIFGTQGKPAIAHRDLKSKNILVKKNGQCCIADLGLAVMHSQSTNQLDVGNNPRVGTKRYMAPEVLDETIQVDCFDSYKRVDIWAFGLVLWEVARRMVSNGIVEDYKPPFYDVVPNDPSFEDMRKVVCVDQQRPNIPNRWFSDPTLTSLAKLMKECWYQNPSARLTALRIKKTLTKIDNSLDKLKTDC
Experimental: HeLa cells were cultured in MEM media with 10% FBS. […] HeLa cells were plated in 96 well flat bottomed plate at 50,000 cells per well and incubated overnight. Next day, media was removed and 50 μL of fresh complete media was added. 5 μL compound was added to cells (3 μM final concentration at highest) and incubated for 60 min at 37° C. 200 ng/ml BMP-7 was added and incubated for 30 min at 37° C. After incubation, the media was removed, washed 2×PBS, and proceeded with HTRF kit according to Cisbio HTRF kit instructions for measuring the Phospho SMAD1 (S463/S465). Finally, both the donor and acceptor were added into 384 well plates and incubated at room temperature overnight and the HTRF signal was measured via Pherastar the next day.

[1] = read-out: FGFR3 (UP) IC50, un-phosphorylated enzyme, ATP near or below Km
[2] = read-out: FGFR1 (UP) IC50, un-phosphorylated enzyme, ATP near or below Km
[3] = read-out: ALK2 3 μM IC50, 3 uM ATP
[4] = read-out: ALK2 100 μM IC50, 100 uM ATP
[5] = HeLa cells, 200 ng/ml BMP-7, Phospho SMAD1 (S463/S465) HTRF

IC50 (FGFR2 (P); FGFR2 (P) IC50 (nM))	SMILES	IC50 (RT112 cells)	IC50 (FGFR3 (UP); [1])	IC50 (FGFR1 (UP))	IC50 (FGFR2 (P); read-out: FGFR2 (P) IC50)	other results
–	CCC1C(=O)N(C)CCN1c1ncc2[nH]nc(-c3cnn(C)c3)c2n1 (stereo not shown) [Example 39, 3-Ethyl-1-methyl-4-(3-(1-methyl-1H-pyrazol-4-yl)-1H-pyrazolo[4,3-d]pyrimidin-5-yl)piperazin-2-one]	100 to 500 nM	< 100 nM	100 to 500 nM	< 100 nM	–
–	CN1CC2CCC(C1=O)N2c1ncc2[nH]nc(-c3cnn(-c4ccc(C#N)nc4)c3)c2n1 (stereo not shown) [Example 74, 5-(4-(5-(3-Methyl-2-oxo-3,8-diazabicyclo[3.2.1]octan-8-yl)-1H-pyrazolo[4,3-d]pyrimidin-3-yl)-1H-pyrazol-1-yl)picolinonitrile]	100 to 500 nM	< 100 nM	–	< 100 nM	IC50 (FGFR1 (UP); [2]): < 100 nM
100 to 500 nM	Cn1cc(-c2n[nH]c3cnc(N4CCc5ncsc5C4)nc23)cn1 [Example 42, 5-(3-(1-Methyl-1H-pyrazol-4-yl)-1H-pyrazolo[4,3-d]pyrimidin-5-yl)-4,5,6,7-tetrahydrothiazolo[5,4-c]pyridine]	100 to 500 nM	< 100 nM	500 to 2000 nM	–	–
–	CC(C)C(=O)N1CCC(n2cc(-c3n[nH]c4cnc(N5C6CCC5C(=O)N(C)C6)nc34)cn2)CC1 (stereo not shown) [Example 57, 8-(3-(1-(1-Isobutyrylpiperidin-4-yl)-1H-pyrazol-4-yl)-1H-pyrazolo[4,3-d]pyrimidin-5-yl)-3-methyl-3,8-diazabicyclo[3.2.1]octan-2-one]	500 to 2000 nM	< 100 nM	100 to 500 nM	< 100 nM	IC50 (ALK2 (aa 147-end); ALK2 3 μM IC50, 3 uM ATP): 500 to 2000 nM; IC50 (ALK2 (aa 147-end); ALK2 100 μM IC50, 100 uM ATP): 500 to 2000 nM
100 to 500 nM	Cn1cc(-c2n[nH]c3cnc(N4CCn5cnc(C(F)(F)F)c5C4)nc23)cn1 [Example 41, 3-(1-Methyl-1H-pyrazol-4-yl)-5-(1-(trifluoromethyl)-5,6-dihydroimidazo[1,5-a]pyrazin-7(8H)-yl)-1H-pyrazolo[4,3-d]pyrimidine]	100 to 500 nM	< 100 nM	100 to 500 nM	–	IC50 (ALK2 (aa 147-end); ALK2 3 μM IC50, 3 uM ATP): 500 to 2000 nM; IC50 (ALK2 (aa 147-end); ALK2 100 μM IC50, 100 uM ATP): 500 to 2000 nM
–	CN(C)C(=O)N1CCC(n2cc(-c3n[nH]c4cnc(N5C6CCC5C(=O)N(C)C6)nc34)cn2)CC1 (stereo not shown) [Example 56, N,N-Dimethyl-4-(4-(5-(3-methyl-2-oxo-3,8-diazabicyclo[3.2.1]octan-8-yl)-1H-pyrazolo[4,3-d]pyrimidin-3-yl)-1H-pyrazol-1-yl)piperidine-1-carboxamide]	500 to 2000 nM	< 100 nM	100 to 500 nM	< 100 nM	–
–	C[C@@H]1CN(c2ccc(-c3n[nH]c4cnc(N5[C@@H]6CCC[C@H]5[C@@H](O)C6)nc34)cn2)CCN1 [Example 4, (1R,5S,6S)-8-(3-(6-((R)-3-Methylpiperazin-1-yl)pyridin-3-yl)-1H-pyrazolo[4,3-d]pyrimidin-5-yl)-8-azabicyclo[3.2.1]octan-6-ol]	–	< 100 nM	100 to 500 nM	< 100 nM	IC50 (ALK2 (aa 147-end); [3]): < 100 nM; IC50 (ALK2 (aa 147-end); [4]): < 100 nM; IC50 (ALK2 (aa 147-end); read-out: ALK2 1 mM IC50, 1 mM ATP): < 100 nM; IC50 (ALK2; [5]): 100 to 500 nM
–	CN1CC2CCC(C1=O)N2c1ncc2[nH]nc(-c3cnn(Cc4ccncc4)c3)c2n1 (stereo not shown) [Example 59, 3-Methyl-8-(3-(1-(pyridin-4-ylmethyl)-1H-pyrazol-4-yl)-1H-pyrazolo[4,3-d]pyrimidin-5-yl)-3,8-diazabicyclo[3.2.1]octan-2-one]	500 to 2000 nM	< 100 nM	100 to 500 nM	< 100 nM	IC50 (ALK2 (aa 147-end); ALK2 3 μM IC50, 3 uM ATP): 500 to 2000 nM; IC50 (ALK2 (aa 147-end); ALK2 100 μM IC50, 100 uM ATP): 500 to 2000 nM
–	CN1CC2CCC(C1=O)N2c1ncc2[nH]nc(-c3cnn(-c4cccnc4)c3)c2n1 (stereo not shown) [Example 69, 3-Methyl-8-(3-(1-(pyridin-3-yl)-1H-pyrazol-4-yl)-1H-pyrazolo[4,3-d]pyrimidin-5-yl)-3,8-diazabicyclo[3.2.1]octan-2-one]	100 to 500 nM	< 100 nM	–	< 100 nM	IC50 (FGFR1 (UP); [2]): < 100 nM
–	C[C@@H]1CN(c2ccc(-c3n[nH]c4cnc(N5[C@@H]6CC[C@H]5CN(c5ccc(C#N)cc5)C6)nc34)cn2)CCN1 [Example 15, 4-((1R,5S)-8-(3-(6-((R)-3-Methylpiperazin-1-yl)pyridin-3-yl)-1H-pyrazolo[4,3-d]pyrimidin-5-yl)-3,8-diazabicyclo[3.2.1]octan-3-yl)benzonitrile]	–	> 2000 nM	–	> 2000 nM	IC50 (ALK2 (aa 147-end); ALK2 100 μM IC50, 100 uM ATP): 100 to 500 nM; IC50 (ALK2 (aa 147-end); ALK2 1 mM IC50, 1 mM ATP): 500 to 2000 nM; IC50 (ALK2 (aa 147-end); [3]): < 100 nM; IC50 (ALK2): 500 to 2000 nM; IC50 (FGFR1 (UP); [2]): > 2000 nM
100 to 500 nM	Cc1cnc2n1CCN(c1ncc3[nH]nc(-c4ccc(N5CCN[C@H](C)C5)nc4)c3n1)C2 [Example 19, (R)-5-(3-Methyl-5,6-dihydroimidazo[1,2-a]pyrazin-7(8H)-yl)-3-(6-(3-methylpiperazin-1-yl)pyridin-3-yl)-1H-pyrazolo[4,3-d]pyrimidine]	–	–	500 to 2000 nM	–	IC50 (ALK2 (aa 147-end); ALK2 1 mM IC50, 1 mM ATP): 100 to 500 nM; IC50 (ALK2 (aa 147-end); [3]): < 100 nM; IC50 (ALK2 (aa 147-end); [4]): < 100 nM; IC50 (ALK2; [5]): 100 to 500 nM; IC50 (FGFR3 (UP)): 100 to 500 nM
–	CC1C(=O)N(CC(F)F)CCN1c1ncc2[nH]nc(-c3cnn(C)c3)c2n1 (stereo not shown) [Example 46, 1-(2,2-Difluoroethyl)-3-methyl-4-(3-(1-methyl-1H-pyrazol-4-yl)-1H-pyrazolo[4,3-d]pyrimidin-5-yl)piperazin-2-one]	100 to 500 nM	< 100 nM	100 to 500 nM	< 100 nM	–
100 to 500 nM	CC(C)N1CCN(c2ncc3[nH]nc(-c4cnn(C)c4)c3n2)C(C)C1=O (stereo not shown) [Example 47, 1-Isopropyl-3-methyl-4-(3-(1-methyl-1H-pyrazol-4-yl)-1H-pyrazolo[4,3-d]pyrimidin-5-yl)piperazin-2-one]	500 to 2000 nM	< 100 nM	500 to 2000 nM	–	–
–	CN1CC2CCC(C1=O)N2c1ncc2[nH]nc(-c3cnn(-c4ccc(C#N)c(F)c4)c3)c2n1 (stereo not shown) [Example 78, 2-Fluoro-4-(4-(5-(3-methyl-2-oxo-3,8-diazabicyclo[3.2.1]octan-8-yl)-1H-pyrazolo[4,3-d]pyrimidin-3-yl)-1H-pyrazol-1-yl)benzonitrile]	100 to 500 nM	< 100 nM	100 to 500 nM	< 100 nM	–
–	CN1CC2CCC(C1=O)N2c1ncc2[nH]nc(-c3cnn(-c4cncc(C#N)c4)c3)c2n1 (stereo not shown) [Example 73, 5-(4-(5-(3-Methyl-2-oxo-3,8-diazabicyclo[3.2.1]octan-8-yl)-1H-pyrazolo[4,3-d]pyrimidin-3-yl)-1H-pyrazol-1-yl)nicotinonitrile]	500 to 2000 nM	< 100 nM	100 to 500 nM	< 100 nM	–

SMILES	IC50 (FGFR2 (P); FGFR2 (P) IC50 (nM))	IC50 (RT112 cells)	IC50 (FGFR3 (UP); [1])	IC50 (FGFR1 (UP))	IC50 (FGFR2 (P); read-out: FGFR2 (P) IC50)	other results
Cn1cc(-c2n[nH]c3cnc(N4C5CCC4C(=O)N(CCF)C5)nc23)cn1 (stereo not shown) [Example 51, 3-(2-Fluoroethyl)-8-(3-(1-methyl-1H-pyrazol-4-yl)-1H-pyrazolo[4,3-d]pyrimidin-5-yl)-3,8-diazabicyclo[3.2.1]octan-2-one]	100 to 500 nM	500 to 2000 nM	< 100 nM	100 to 500 nM	–	IC50 (ALK2 (aa 147-end); ALK2 3 μM IC50, 3 uM ATP): 100 to 500 nM; IC50 (ALK2 (aa 147-end); ALK2 100 μM IC50, 100 uM ATP): 500 to 2000 nM
Cc1cc(C#N)ccc1-n1cc(-c2n[nH]c3cnc(N4C5CCC4C(=O)N(C)C5)nc23)cn1 (stereo not shown) [Example 77, 3-Methyl-4-(4-(5-(3-methyl-2-oxo-3,8-diazabicyclo[3.2.1]octan-8-yl)-1H-pyrazolo[4,3-d]pyrimidin-3-yl)-1H-pyrazol-1-yl)benzonitrile]	100 to 500 nM	500 to 2000 nM	< 100 nM	500 to 2000 nM	–	–
